Tests used:
Plasma stability = type: in vitro ADME; settings: 37° C.; for Stability in Human Plasma Formation of parent compound: 2 μM, Yes/No; for half-life at 2 μM: pooled plasma, pH 7.4, human plasma, time points 0, 10, 30, 60 and 120 min
Procedure: The pooled frozen plasma was thawed in a water bath at 37° C. prior to experiment. Plasma was centrifuged at 4000 rpm for 5 min and the clots were removed if any. The pH will be adjusted to 7.4±0.1 if required.
Preparation of test compounds and positive control (propantheline bromide): 1 mM intermediate solution was prepared by diluting 10 μL of the stock solution with 90 μL MeOH; 1 mM intermediate of positive control Propantheline was prepared by diluting 10 μL of the stock solution with 90 μL ultrapure water. 100 μM dosing solution was prepared by diluting 20 μL of the intermediate solution (1 mM) with 180 μL MeOH. 98 μL of blank plasma was spiked with 2 μL of dosing solution (100 μM) to achieve 2 μM of the final concentration in duplicate and samples were incubated at 37° C. in a water bath. At each time point (0,10, 30, 60 and 120 min), 400 μL of stop solution (0.1% FA in MeOH containing 200 ng/mL tolbutamide and 200 ng/mL Labetalol) was added to precipitate protein and mixed thoroughly. Centrifuged sample plates at 4,000 rpm for 10 min. An aliquot of supernatant (100 μL) was transferred from each well to another plates.
Data analysis: The % remaining of test compound after incubation in plasma was calculated using following equation:
% Remaining=[…]×(PAR at appointed incubation time/PAR at T0 time)
where PAR is the peak area ratio of analyte versus internal standard (IS) (LC/MS/MS mobile phase condition: 0.1% Formic Acid in Water/0.1% Formic Acid in Acetonitrile. The appointed incubation time points are TO (0 min), Tn (n=0, 10, 30, 60, 120 min).

Liver S9 stability = type: in vitro ADME; settings: human liver S9, 37° C.; for half-life at 1 μM: time points up to 60 min; for Stability in Human Liver S9 Formation of parent compound: Yes/No
Procedure: Intermediate solution: Dilute 5 μL of compounds or controls (7-ethoxycoumarin) from stock solution (10 mM) with 495 μL MeOH (Conc.: 100 μM, 1% DMSO, 99% MeOH). Stop solution: Cold ACN (including 100 ng/mL Tolbutamide and Labetalol as internal standard). Add 2 μL test compound or control working solution/well to all plates (T0, T5, T10, T20, T30, T60, NCF60) except matrix blank. Add 600 μL/well stop solution (cold in 4° C., including 100 ng/mL Tolbutamide/100 ng/mL Labetalol) to terminate the TO plate, then put it on ice. Dispense 840 μL/well S9 solution to 96-well plate as reservoir according to plate map. Then add 100 μL/well to every plate by Apricot. Incubate S9 solution and compound at 37° C. for about 10 min except NCF60 and TO. After adding S9 solution and 98 μ LPB buffer to NCF60, incubate at 37° C. without pre-warming, start timer 1. After 60 min, add 600 μL/well stop solution to terminate the reaction. After pre-warming, dispense 760 μL/well cofactor solution to 96-well plate as reservoir according to plate map. Then add 98 μL/well to every plate by Apricot to start reaction. Incubate at 37° C., start timer 2, Add 600 μL/well stop solution (cold in 4° C., including 100 ng/mL Tolbutamide and Labetalol) to terminate the reaction. Samples are centrifuged at 4000 rpm for 20 min. While centrifuging, load 8×new 96-well plate with 300 μL HPLC water, then transfer 100 μL supernatant, mix with water for LC/MS/MS, transferred to Bioanalytical Services for LC-MS/MS analysis. Use equation of first order kinetics to calculate t1/2 and CL: Equation of first order kinetics: […]

Row | Compound | Stability in Human Plasma Formation of parent compound (Plasma stability) | half-life at 2 μM (Plasma stability) [min] | half-life at 1 μM (Liver S9 stability) [min] | Stability in Human Liver S9 Formation of parent compound (Liver S9 stability)
1 | CCCCCC(=O)O[C@@H]1CC[C@@]2(C)[C@@H](CC[C@@H]3[C@@H]2CC[C@]2(C)[C@@H](C(C)=O)CC[C@@H]32)C1 [Example 1, [(3R,5S,8R,9S,10S,13S,14S,17S)-17-acetyl-10,13-dimethyl-2,3,4,5,6,7,8,9,11,12,14,15,16,17-tetradecahydro-1H-cyclopenta[a]phenanthren-3-yl]hexanoate] | No | > 200 | < 50 | No
2 | CCCCCCC(=O)O[C@@H]1CC[C@@]2(C)[C@@H](CC[C@@H]3[C@@H]2CC[C@]2(C)[C@@H](C(C)=O)CC[C@@H]32)C1 [Example 2, [(3R,5S,8R,9S,10S,13S,14S,17S)-17-acetyl-10,13-dimethyl-2,3,4,5,6,7,8,9,11,12,14,15,16,17-tetradecahydro-1H-cyclopenta[a]phenanthren-3-yl]heptanoate] | No | > 200 | < 50 | No
3 | CC(=O)[C@H]1CC[C@H]2[C@@H]3CC[C@H]4C[C@H](OC(=O)CC5CCCC5)CC[C@]4(C)[C@H]3CC[C@]12C [Example 8, [(3R,5S,8R,9S,10S,13S,14S,17S)-17-acetyl-10,13-dimethyl-2,3,4,5,6,7,8,9,11,12,14,15,16,17-tetradecahydro-1H-cyclopenta[a]phenanthren-3-yl] 3-cyclopentylacetate] | No | > 200 | < 50 | No
4 | CC(=O)OCCCC(=O)O[C@@H]1CC[C@@]2(C)[C@@H](CC[C@@H]3[C@@H]2CC[C@]2(C)[C@@H](C(C)=O)CC[C@@H]32)C1 [Example 14, [(3R,5S,8R,9S,10S,13S,14S,17S)-17-acetyl-10,13-dimethyl-2,3,4,5,6,7,8,9,11,12,14,15,16,17-tetradecahydro-1H-cyclopenta[a]phenanthren-3-yl]4-acetoxybutanoate] | No | 50 to 200 | < 50 | No
5 | CC(=O)[C@H]1CC[C@H]2[C@@H]3CC[C@H]4C[C@H](OC(=O)CCCOC(=O)C(C)C)CC[C@]4(C)[C@H]3CC[C@]12C [Example 15, [(3R,5S,8R,9S,10S,13S,14S,17S)-17-acetyl-10,13-dimethyl-2,3,4,5,6,7,8,9,11,12,14,15,16,17-tetradecahydro-1H-cyclopenta[a]phenanthren-3-yl]4-(2-methylpropanoyloxy)butanoate] | No | 50 to 200 | < 50 | No
6 | CC(=O)OCCCCC(=O)O[C@@H]1CC[C@@]2(C)[C@@H](CC[C@@H]3[C@@H]2CC[C@]2(C)[C@@H](C(C)=O)CC[C@@H]32)C1 [Example 16, [(3R,5S,8R,9S,10S,13S,14S,17S)-17-acetyl-10,13-dimethyl-2,3,4,5,6,7,8,9,11,12,14,15,16,17-tetradecahydro-1H-cyclopenta[a]phenanthren-3-yl] 5-acetoxypentanoate] | No | 50 to 200 | < 50 | No
7 | CC(=O)OCCCC(C)C(=O)O[C@@H]1CC[C@@]2(C)[C@@H](CC[C@@H]3[C@@H]2CC[C@]2(C)[C@@H](C(C)=O)CC[C@@H]32)C1 (stereo partly drawn) [Example 17, [(3R,5S,8R,9S,10S,13S,14S,17S)-17-acetyl-10,13-dimethyl-2,3,4,5,6,7,8,9,11,12,14,15,16,17-tetradecahydro-1H-cyclopenta[a]phenanthren-3-yl]5-acetoxy-2-methyl-pentanoate] | No | 50 to 200 | < 50 | No
8 | CC(=O)[C@H]1CC[C@H]2[C@@H]3CC[C@H]4C[C@H](OC(=O)OCCOC(=O)C(C)C)CC[C@]4(C)[C@H]3CC[C@]12C [Example 19, 2-[[(3R,5S,8R,9S,10S,13S,14S,17S)-17-acetyl-10,13-dimethyl-2,3,4,5,6,7,8,9,11,12,14,15,16,17-tetradecahydro-1H-cyclopenta[a]phenanthren-3-yl]oxycarbonyloxy]ethyl 2-methylpropanoate] | No | 50 to 200 | < 50 | Yes
9 | CC(=O)[C@H]1CC[C@H]2[C@@H]3CC[C@H]4C[C@H](OC(=O)OCc5oc(=O)oc5C)CC[C@]4(C)[C@H]3CC[C@]12C [Example 20, [(3R,5S,8R,9S,10S,13S,14S,17S)-17-acetyl-10,13-dimethyl-2,3,4,5,6,7,8,9,11,12,14,15,16,17-tetradecahydro-1H-cyclopenta[a]phenanthren-3-yl](5-methyl-2-oxo-1,3-dioxol-4-yl)methyl carbonate] | Yes | < 50 | < 50 | Yes
10 | CCCCOC(=O)O[C@@H]1CC[C@@]2(C)[C@@H](CC[C@@H]3[C@@H]2CC[C@]2(C)[C@@H](C(C)=O)CC[C@@H]32)C1 [Example 21, [(3R,5S,8R,9S,10S,13S,14S,17S)-17-acetyl-10,13-dimethyl-2,3,4,5,6,7,8,9,11,12,14,15,16,17-tetradecahydro-1H-cyclopenta[a]phenanthren-3-yl]butyl carbonate] | No | > 200 | < 50 | Yes
11 | CC(=O)[C@H]1CC[C@H]2[C@@H]3CC[C@H]4C[C@H](OC(=O)NCCOC(=O)C(C)C)CC[C@]4(C)[C@H]3CC[C@]12C [Example 22, 2-[[(3R,5S,8R,9S,10S,13S,14S,17S)-17-acetyl-10,13-dimethyl-2,3,4,5,6,7,8,9,11,12,14,15,16,17-tetradecahydro-1H-cyclopenta[a]phenanthren-3-yl]oxycarbonylamino]ethyl 2-methylpropanoate] | No | > 200 | < 50 | Yes
12 | CC(=O)[C@H]1CC[C@H]2[C@@H]3CC[C@H]4C[C@H](OC(=O)N(C)CCOC(=O)C(C)C)CC[C@]4(C)[C@H]3CC[C@]12C [Example 23, 2-[[(3R,5S,8R,9S,10S,13S,14S,17S)-17-acetyl-10,13-dimethyl-2,3,4,5,6,7,8,9,11,12,14,15,16,17-tetradecahydro-1H-cyclopenta[a]phenanthren-3-yl]oxycarbonyl-methyl-amino]ethyl 2-methylpropanoate] | No | 50 to 200 | < 50 | Yes
13 | CC(=O)[C@H]1CC[C@H]2[C@@H]3CC[C@H]4C[C@H](OC(=O)OCCNC(=O)C(C)C)CC[C@]4(C)[C@H]3CC[C@]12C [Example 24, [(3R,5S,8R,9S,10S,13S,14S,17S)-17-acetyl-10,13-dimethyl-2,3,4,5,6,7,8,9,11,12,14,15,16,17-tetradecahydro-1H-cyclopenta[a]phenanthren-3-yl] 2-(2-methylpropanoylamino)ethyl carbonate)] | No | > 200 | < 50 | No

From patent publication US20230416298A1, “PRODRUGS OF NEUROACTIVE STEROIDS” (Brii Biosciences, Inc., priority 2020, published 2023)
